Source: US20250057893A1, “PHARMACEUTICAL COMPOSITION FOR PREVENTING OR TREATING CANCER OR INFLAMMATORY DISEASE” (ENTEROBIOME INC., priority 2021, published 2025)
Converted amounts (≈) assume the structure as drawn.

How the values were obtained:
Format in all cases: cell-based
[1] = tested on: Bacteroides thetiotaomicron ATCC 29741; experiment: Antimicrobial susceptibility, broth microdilution MIC (CLSI), QC strain; parameters: MIC, QC ATCC 297415: unit not given beside the values; conditions: for MIC: Bacteroides, ATCC 29741 / ATCC 297415, read-out: MIC, QC ATCC 297415
[2] = tested on: Akkermansia muciniphila EB-AMDK39 strain; experiment: Antimicrobial susceptibility, broth microdilution MIC (CLSI), isolated strain; conditions: for MIC: Akkermansia muciniphila, EBAMDK39STRAIN, read-out: MIC, test strain EB-AMDK39, broth microdilution
[3] = tested on: Akkermansia muciniphila ATCC BAA-835; experiment: Antimicrobial susceptibility, broth microdilution MIC (CLSI), type strain; conditions: for MIC: Akkermansia muciniphila, ATCCBAA835, broth microdilution, read-out: MIC, test strain ATCC BAA-835

COc1c(N2C[C@@H]3CCCN[C@@H]3C2)c(F)cc2c(=O)c(C(=O)O)cn(C3CC3)c12 [MXF, moxifloxacin]
MIC [1]: 8 µg/mL (≈ 19.9 µM) | MIC [2]: > 32 µg/mL | Susceptibility category by MIC breakpoints, MXF ([2]; EB-AMDK39, MXF breakpoints): R (≥8) | Susceptibility category by MIC breakpoints, MXF ([3]; ATCC BAA-835, MXF breakpoints): R (≥8) | MIC [3]: > 32 µg/mL

C[C@@H](O)[C@H]1C(=O)N2C(C(=O)O)=C(S[C@@H]3CN[C@H](C(=O)N(C)C)C3)[C@H](C)[C@H]12 [MEM, meropenem]
MIC [1]: 0.5 µg/mL (≈ 1.3 µM) | MIC [2]: 4 µg/mL (≈ 10.4 µM) | Susceptibility category by MIC breakpoints, MEM ([2]; EB-AMDK39, MEM breakpoints): S (≤4) | Susceptibility category by MIC breakpoints, MEM ([3]; ATCC BAA-835, MEM breakpoints): S (≤4) | MIC [3]: 1 µg/mL (≈ 2.61 µM)

CO/N=C(\C(=O)N[C@@H]1C(=O)N2C(C(=O)O)=CCS[C@H]12)c1csc(N)n1 [CTZ, ceftizoxime]
MIC [1]: 16 µg/mL (≈ 41.7 µM) | MIC [2]: 256 µg/mL (≈ 668 µM) | Susceptibility category by MIC breakpoints, CTZ ([2]; EB-AMDK39, CTZ breakpoints): R (≥128) | Susceptibility category by MIC breakpoints, CTZ ([3]; ATCC BAA-835, CTZ breakpoints): S (≤32) | MIC [3]: 2 µg/mL (≈ 5.22 µM)

Cc1ncc([N+](=O)[O-])n1CCO [MTZ, metronidazole]
MIC [1]: 2 µg/mL (≈ 11.7 µM) | MIC [2]: 1 µg/mL (≈ 5.84 µM) | Susceptibility category by MIC breakpoints, MTZ ([2]; EB-AMDK39, MTZ breakpoints): S (≤8) | Susceptibility category by MIC breakpoints, MTZ ([3]; ATCC BAA-835, MTZ breakpoints): S (≤8) | MIC [3]: ≤ 0.25 µg/mL

CCC[C@@H]1C[C@@H](C(=O)N[C@@H]([C@H]2O[C@H](SC)[C@H](O)[C@@H](O)[C@H]2O)[C@H](C)Cl)N(C)C1 [CLI, clindamycin]
MIC [2]: > 64 µg/mL | Susceptibility category by MIC breakpoints, CLI ([2]; EB-AMDK39, CLI breakpoints): R (≥8) | Susceptibility category by MIC breakpoints, CLI ([3]; ATCC BAA-835, CLI breakpoints): S (≤2) | MIC [3]: ≤ 0.125 µg/mL

O=C(N[C@H](CO)[C@H](O)c1ccc([N+](=O)[O-])cc1)C(Cl)Cl [CHL, chloramphenicol]
MIC [1]: 8 µg/mL (≈ 24.8 µM) | MIC [2]: 8 µg/mL (≈ 24.8 µM) | Susceptibility category by MIC breakpoints, CHL ([2]; EB-AMDK39, CHL breakpoints): S (≤8) | Susceptibility category by MIC breakpoints, CHL ([3]; ATCC BAA-835, CHL breakpoints): S (≤8) | MIC [3]: 4 µg/mL (≈ 12.4 µM)

Piperacillin-tazobactam [PTZ]
MIC, QC ATCC 297415 ([1]; broth microdilution, QC strain): 8/4 | Susceptibility category by MIC breakpoints, PTZ ([2]; EB-AMDK39, PTZ breakpoints): S (≤32/4) | Susceptibility category by MIC breakpoints, PTZ ([3]; ATCC BAA-835, PTZ breakpoints): S (≤32/4)
